Data set [1] can be described thus: Mouse plasma stability. It counts as in vitro ADME.
Data set [2] addresses T1, IL-13 (Homo sapiens, UniProt P35225). As to conditions: previously reported; cited from earlier work.
Data set [3] relates to murine IL-4 induced STAT-6 phosphorylation in RAW 264.7 macrophages. Put plainly: RAW 264.7 STAT-6 phosphorylation assay (western blot). It counts as cell-based. On the procedure: RAW 264.7 cells were purchased from ATCC and maintained in DMEM with 10% heat-inactivated Fetal Bovine Serum. Cells used for assays were between passages 3 and 5. […] The undiluted cell lysates were run SDS-PAGE followed by transfer to Immunoblot PVDF membrane using Biorad equipment. Membranes were incubated with 1:1000 primary antibody overnight at 4° C. Membranes were then incubated with 1:50,000 dilution secondary for 1 hour at room temperature. Membranes were then exposed to Femto ECL for 5 minutes and imaged using a Bio-Rad Gel Doc. The brightness/contrast was adjusted in FIJI and the area under the curve of each lane was quantified. The phosphorylated STAT-6 to STAT-6 ratio was calculated and normalized to the amount of total STAT-6. The data was plotted and analyzed using GraphPad Prism 8.

The target in data set [4] is IL-4 induced STAT-6 phosphorylation in THP-1 monocytes (type II IL-4 receptor). The following applies: previously reported, read-out: EC50 of inhibition of STAT-6 phosphorylation; cited from earlier work.
Data set [5] in a line: Mouse hepatic microsome stability. The class given is in vitro ADME. The following applies: mouse hepatic microsomes.
In data set [6] the test system is IL-4 induced STAT-6 phosphorylation in Ramos B lymphocytes (type I IL-4 receptor). Put plainly: Ramos STAT-6 phosphorylation assay (western blot). It counts as cell-based. As to conditions: for inhibition at 0.5 µM: read-out: percent inhibition of STAT-6 phosphorylation; for inhibition of phosphorylation of STAT-6: 50 nM. How it is done:
Ramos cells were purchased from ATCC and maintained in RMPI-1640 with 10% heat-inactivated Fetal Bovine Serum. Cells used for assays were between passages 4 and 8. […] Undiluted cell lysates were run SDS-PAGE and transferred to Immunoblot PVDF membrane using Biorad equipment. Membranes were incubated with 1:1000 primary antibody overnight at 4° C. Membranes were then incubated with 1:50,000 dilution secondary for 1 hour at room temperature. Membranes were then exposed to Femto ECL for 5 minutes and imaged using a Bio-Rad Gel Doc. The brightness/contrast was adjusted in FIJI and the area under the curve of each lane was quantified. The phosphorylated STAT-6 to STAT-6 ratio was calculated and normalized to the amount of total STAT-6. The data was plotted and analyzed using GraphPad Prism 9.2.0.
On the technique in general: A western blot detects proteins with antibodies after separation by electrophoresis.

Data set [7] is described as follows: PAMPA membrane permeability. The class given is in vitro ADME. The following applies: 18 hours incubation. How it is done:
PVDF membranes purchased from Bioassay Systems PAMPA-096 were coated with 5 μL of 4% Phosphatidylcholine (Lecithin, MP Biomedicals 0210214780) in dodecane. […] Permeability was calculated by Pv=C×ln (1−ODA/ODE) cm/s, where ODA is the absorbance of acceptor solution minus blank, and ODE the absorbance of the equilibrium standard minus blank, and C=7.72×10^−6 using an 18-hour incubation time.
(In general: PAMPA measures passive passage across an artificial lipid membrane.)

Data set [8] relates to B16-F10 cells. Put plainly: In vitro cytotoxicity (CellTiter-Glo). It counts as cell-based. The following applies: up to 25 μM. How it is done: CellTiter-Glo 2.0 purchased from Promega G9242) was used to measure cell viability with the Victor-3 plate reader (PerkinElmer) after 24 hours in concentrations of compound up to 25 μM. Vehicle was used as a negative control for both cytotoxicity and growth inhibition, methanol was used as a positive control for cytotoxicity, and 1% FBS was used as a positive control for growth inhibition.
Background: In ATP-based viability assays light output follows the ATP content of the culture.

Data set [9] in a line: Human plasma stability. It counts as in vitro ADME.
Data set [10] has as its target T2, IL-4 (Homo sapiens, UniProt P05112).
T2 construct: purchased Acros Biosystems IL4-H4218; host or cells: HEK-293
T2 sequence (P05112 25-153): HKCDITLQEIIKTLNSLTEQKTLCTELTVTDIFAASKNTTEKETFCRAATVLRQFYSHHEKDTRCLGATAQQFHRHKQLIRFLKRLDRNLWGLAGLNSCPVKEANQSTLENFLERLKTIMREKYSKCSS
The data set is described as follows: HEK-Blue IL-4/IL-13 reporter assay, IL-4 inhibition. The class given is cell-based. The following applies: for % Inhibition / inhibition at 10 µM: 10 μM, IL-4, HEK Blue IL-4/IL-13 reporter assay; for inhibition at 10 µM: HEK-Blue; for EC50: dose response, IL-4 inhibition; for Hill coefficient: fit of dose response in HEK Blue IL-4/IL-13 reporter assay. How it is done: HEK-Blue IL-4/IL-13 Inhibition assay. HEK-Blue IL-4/IL-13 reporter cell lines were purchased from Invivogen and cultured in DMEM with 10% Heat Inactivated Fetal Bovine Serum (FBS), 100 U/ml-100 μg/ml Pen-Strep, 10 μg/ml blasticidin, 100 μg/ml Normocin and 100 μg/ml Zeocin. Cells were tested for secreted embryonic alkaline phosphatase (SEAP) production induced by IL-4 alone prior to small molecule screening.
22.5 μl of small molecule in DMEM 4% DMSO was added to 22.5 μl of 1 ng/ml IL-4 in DMEM in a non-binding 96-well reaction plate for 30 minutes at room temperature. The reaction plate was further incubated for 30-60 min at 37° C. HEK-Blue IL-4/IL-13 reporter cell line was used between passages 11-17. […] Measurements were done in triplicate. The plate was incubated for ˜22-24 hours at 37° C./5% CO2. Quanti-Blue dye was prepared as per the manufacturer's recommendation and 160 μl was dispensed in each well of a 96-well plate (avoid edges to avoid evaporation), 40 μl of cell supernatant was added to the same plate and incubated for 3 hours at 37° C./5% CO2. Optical density was then measured at 650 nm using Molecular Devices SpectraMax M5 Microplate reader. Data was analyzed and plotted using GraphPad Prism 9.2.0.

Data set [11] deals with T3, soluble IL-4 (Homo sapiens, UniProt P05112).
T3 sequence (P05112 25-153): T2 sequence (P05112 25-153)
The data set is described as follows: Differential scanning fluorimetry (thermal shift), IL-4. It counts as binding. The following applies: soluble IL-4, 2 μM compound, 0.1% DMSO; read-out: Tm shift. On the procedure:
DSF was performed using BioRad CFX384.

Data set [12] relates to IL-4 induced pSTAT-6 in THP-1 cells. Put plainly: THP-1 pSTAT-6 immunofluorescence.
Method: IL-4 and analogs or vehicle (DMEM with 2% DMSO) were preincubated for 2 hours at 37° C. After the incubation, IL-4 or IL-4/analogs were incubated with THP-1 cells for 30 min at 37° C./5% CO2. Incubated cells were centrifuged for 5 min at 250×g. After aspirating the supernatant, cells were resuspended in 1×PBS and plated into a MatTek dish coated with Cell Tak adhesive for 30 minutes at room temperature. Cells were fixed with 4% Paraformaldehyde for 1 hour at room temperature. Cells were rinsed twice with 1×PBS and then permeabilized with 0.5% Triton-X for 1 hour at room temperature. Cells were rinsed again with 1×PBS, and blocked for an hour in superblock with 0.05% Tween-20, rinsed twice, and then incubated with anti-pSTAT-6 1:100 diluted in superblock 0.05% Tween-20 overnight at 4° C. (parafilmed to avoid evaporation). Cells were rinsed thrice with 1×PBS and then incubated with Mouse anti-rabbit IgG(H+L) Secondary Antibody-Alexa Fluor 647 for 1 hour at room temperature in the dark. […] Cells were rinsed twice with 1×PBS and left in 1 ml of 1×PBS. Confocal Imaging was done using an Olympus FV10i and images were processed using FIJI.
Data set [13] concerns the target T2, IL-4. The data set is described as follows: HEK-Blue IL-4/IL-13 reporter assay, IL-4 inhibition. It counts as cell-based. As to conditions: control: cells with 10 μM compound only, no IL-4.
The target of data set [14] is T1, IL-13. Put plainly: HEK-Blue IL-4/IL-13 reporter assay, IL-13 inhibition. It counts as cell-based. On the procedure:
Prior to screening. […] The solution was added to preincubated cells in a 96-well culture plate. The supernatant was then incubated with Quanti-Blue dye for 3 hours and absorbance was measured at 650 nm. Data was analyzed and plotted using GraphPad Prism 9.2.0.

For data set [15], the system named is IL-4 induced STAT-6 phosphorylation in THP-1 monocytes (type II IL-4 receptor). The data set is described as follows: THP-1 STAT-6 phosphorylation assay (western blot). It counts as cell-based. How it is done: THP-1 cells were received as a gift from the laboratory of Dr. Mark Grinstaff and maintained in RMPI-1640 with […] heat-inactivated Fetal Bovine Serum and 50 μM beta-mercaptoethanol. Cells used for assays were between passages 6 and 10, 10 ng/mL IL-4 was preincubated with experimental sample (vehicle or analogs) for 30 minutes at 37° C. 1 mL of each solution was then added to a pellet of 2 E6 THP-1 cells and pipetted up and down. THP-1 cells were incubated for 30 minutes in the incubator at 37 C/5% CO2. Cells were then spun down and lysed with 200 μL ice-cold RIPA buffer complete with phosphatase and protease inhibitors. Cell lysates were incubated on ice for 30 minutes, spun down and the supernatants were stored at −20° C. until western blot analysis. Undiluted cell lysates were run on SDS-PAGE and transferred to Immunoblot PVDF membrane using Biorad equipment. Membranes were incubated with 1:1000 primary antibody overnight at 4° C. Membranes were then incubated with 1:50,000 dilution secondary for 1 hour at room temperature. Membranes were then exposed to Femto ECL for 5 minutes and imaged using a Bio-Rad Gel Doc. The brightness/contrast was adjusted in FIJI and the area under the curve of each lane was quantified. The phosphorylated STAT-6 to STAT-6 ratio was calculated and normalized to the amount of total STAT-6. The data was plotted and analyzed using GraphPad Prism 9.2.0′.

The mark [16] stands for this setting: HEK Blue IL-4/IL-13 reporter assay, read-out: EC50.

Values joined by “and” are separate entries in the source; they are usually repeats but may differ in a detail not shown here. Identical values can stand only once. “Also recorded” adds a separate entry of the source. Like-named read-outs stand apart in the source and are kept apart here.

The EC50 is the concentration needed to bring the measured effect to its halfway point. In general, inhibition refers to the drop in the measured response relative to a control, in per cent. The term Papp denotes the rate of passage across a membrane or cell layer, normalised by area and donor concentration. High values mean fast passage, low ones slow passage. One may read the % Inhibition as how much of the control response was suppressed. Higher therefore signals strong suppression. Usually Hill coefficient stands for a measure of the steepness of the concentration-response curve.

T1 sequence (P35225 25-146): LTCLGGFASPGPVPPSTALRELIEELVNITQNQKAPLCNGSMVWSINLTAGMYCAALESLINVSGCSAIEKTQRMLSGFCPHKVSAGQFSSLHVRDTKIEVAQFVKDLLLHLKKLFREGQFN

For `N#Cc1c(-c2ccc(O)c(O)c2)cc(-c2ccc(F)cc2)nc1N` [Nico-52, 4-(3,4-dihydroxyphenyl)-6-(4fluorophenyl)-2-imino-1,2-dihydropyridine-3-carbonitrile, reference compound], in [1], the “Mouse plasma stability (% remaining after 3 hours)” value worked out at 97%. The “fold higher inhibition for IL-4 activity than IL-13 activity” value in [2] was 10 fold. Besides, the EC50 is 1280 nM in data set [3] (Mus musculus, RAW264.7, RAW 264.7 macrophages, murine IL-4, read-out: EC50 of reduction in pSTAT-6 levels); 3100 nM in [4]; 1030 nM in data set [6] (Homo sapiens, Ramos B lymphocytes, western blot, read-out: EC50 of inhibition of STAT-6 phosphorylation); 1320 ± 380 nM in data set [10] (setting [16]). Moreover, in [3] (total STAT-6, RAW 264.7), the STAT-6 levels result is recorded as “not affected”. Besides, the “Mouse hepatic microsome stability (% remaining after 1 hour)” value in [5] is recorded as 86.5%. The inhibition at 0.5 µM in [6] (Homo sapiens, Ramos B lymphocytes, 500 nM) worked out at 14.6%. The “inhibition of phosphorylation of STAT-6” value in data set [6] (Ramos B lymphocytes) is reported as “minimum inhibition”. In data set [7], this compound displayed a Papp at 18 h, 100 μM of 16.4 ×10⁻⁶ cm/s. In addition, the “Cytotoxicity in B16-F10 cells (24 hours)” value in data set [8] is reported as “no toxicity; also recorded: n.s. < 25 μM”. Also, the “Human plasma stability (% remaining after 3 hours)” value in data set [9] was over 99%. Further, the “% Inhibition” value in data set [10] was found to be 97.6 ± 1.57%. Also, the inhibition at 10 µM in [10] (read-out: % Inhibition) was over 97%. The Hill coefficient in data set [10] is recorded as 1.24±0.08.
Regarding `N#Cc1c(-c2ccc(O)c(O)c2)cc(-c2ccc(N)cc2)[nH]c1=N` [Compound 14, 6-(4-aminophenyl)-4-(3,4-dihydroxyphenyl)-2-imino-1,2-dihydropyridine-3-carbonitrile], in data set [11], the ΔTm at 2 µM is 1.66 °C. The “Mouse plasma stability (% remaining after 3 hours)” value was over 99% in [1] and over 99%/>99% in data set [1] (listed as Analog 14). In addition, the “STAT-6 phosphorylation by immunofluorescence” value in [12] (500 nM) was “significant reduction in STAT-6 phosphorylation”; in [12] (5 μM), “almost no visible STAT-6 phosphorylation”. Besides, in [13], the Abs650 is recorded as 0.05948 ± 0.000642. The “fold less potent for IL-13 than for IL-4” value in [14] (IL-13 EC50 versus IL-4 EC50) is on record as 100 fold. The EC50 in data set [14] (soluble IL-13 mediated signaling, HEK Blue IL-4/IL-13 reporter assay) was found to be 18200 nM; in [15] (Homo sapiens, THP-1 monocytes, western blot, normalized to STAT-6, read-out: EC50 of inhibition of STAT-6 phosphorylation), 686 nM; in data set [10] (setting [16]), 670 ± 280 nM; in data set [10] (values in text, read-out: potency (EC50 of inhibition)), 627 nM. Besides, in data set [15] (total STAT-6, THP-1 cells), the STAT-6 levels result is given as “not impacted”. The “Mouse hepatic microsome stability (% remaining after 1 hour)” value in [5] and in data set [5] (listed as Analog 14) was 75.4% throughout. Further, in [6] (Homo sapiens, Ramos), the inhibition at 0.5 µM was found to be 31.4%. For the same compound, the “inhibition of phosphorylation of STAT-6” value in data set [6] (Ramos B lymphocytes) was “minimum inhibition”. This compound showed an apparent permeability (Papp) at 18 h, 100 μM in data set [7] of 6.2 ×10⁻⁶ cm/s. The figures for the “Cytotoxicity in B16-F10 cells (24 hours)” value in [8] and in data set [8] (listed as Analog 14) were “no toxicity” and “n.s. < 25 μM”, respectively. Further, the “Human plasma stability (% remaining after 3 hours)” value in data set [9] (listed as Analog 14) is over 99%/>99%. In data set [10], the “% Inhibition” value is 94.5% and 94.5 ± 1.58% and 94.5 ± 1.68%. This compound also came in with an inhibition at 10 µM in [10] of over 80%. Also, the Hill coefficient in [10] is on record as 1.69±0.25.

Source of the values: US20250313530A1, “SMALL MOLECULE INHIBITORS OF INTERLEUKIN-4 AND USES THEREOF” (Trustees of Boston University, priority 2024, published 2025).
